Publication PMC9074039, “Molecular analysis and essentiality of Aro1 shikimate biosynthesis multi-enzyme in Candida albicans” (Life Science Alliance, 2022)

What was measured:
Aro1EPSPS = target: T1, Aro1EPSPS (Candida albicans, UniProt Q5AME2); experiment: X-ray crystal structure, […] A; format: binding; settings: co-crystallised with 1 mM shikimate-3-phosphate, pH 8; closed conformation
T1 construct: gene ARO1; EPSPS domain, residues 387-844, expressed in E. coli BL21(DE3) Gold, His6-TEV tag cut; strain SC5314 printed for the full-length clone pLC1335
T1 sequence (Q5AME2 387-844): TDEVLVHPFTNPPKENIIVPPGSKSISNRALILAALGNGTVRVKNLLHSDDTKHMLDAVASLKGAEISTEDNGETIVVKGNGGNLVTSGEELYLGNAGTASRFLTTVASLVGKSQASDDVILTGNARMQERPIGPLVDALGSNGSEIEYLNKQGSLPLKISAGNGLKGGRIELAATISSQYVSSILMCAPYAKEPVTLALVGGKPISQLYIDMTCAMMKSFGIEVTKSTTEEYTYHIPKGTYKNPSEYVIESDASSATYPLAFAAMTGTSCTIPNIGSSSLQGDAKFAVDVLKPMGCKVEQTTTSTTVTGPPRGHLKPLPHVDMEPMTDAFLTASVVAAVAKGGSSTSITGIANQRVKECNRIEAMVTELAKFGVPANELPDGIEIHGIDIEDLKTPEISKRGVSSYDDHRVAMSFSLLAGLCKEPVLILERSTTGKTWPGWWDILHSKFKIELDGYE

Aro1DHQS = target: T2, Aro1DHQS (Candida albicans, UniProt Q5AME2); experiment: X-ray crystal structure, […] A; format: binding; settings: co-crystallised with 2 mM NADH and 0.5 mM ZnCl2; one NADH per chain
T2 construct: gene ARO1; N-terminal DHQS domain, residues 1-387, expressed in E. coli BL21(DE3) Gold, His6-TEV tag cut; dimer in crystal; strain SC5314 printed for the full-length clone pLC1335
T2 sequence (Q5AME2 1-387): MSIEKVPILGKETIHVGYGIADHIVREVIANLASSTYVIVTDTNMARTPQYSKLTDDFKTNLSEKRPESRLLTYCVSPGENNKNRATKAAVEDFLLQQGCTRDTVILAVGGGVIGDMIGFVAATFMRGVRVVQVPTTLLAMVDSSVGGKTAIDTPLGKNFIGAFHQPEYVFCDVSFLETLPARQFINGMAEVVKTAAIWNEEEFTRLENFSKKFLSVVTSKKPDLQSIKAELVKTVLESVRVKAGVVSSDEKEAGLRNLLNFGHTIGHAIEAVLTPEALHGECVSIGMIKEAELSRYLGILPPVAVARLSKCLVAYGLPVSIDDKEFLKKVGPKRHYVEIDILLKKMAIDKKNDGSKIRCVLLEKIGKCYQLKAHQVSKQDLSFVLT

| SMILES | X-ray crystal structure, 1.85 A (Aro1EPSPS) | X-ray crystal structure, 1.85 A (Aro1DHQS) |
| --- | --- | --- |
| O=C(O)C1=C[C@@H](OP(=O)(O)O)[C@@H](O)[C@H](O)C1 [S3P, shikimate-3-phosphate] | additional electron density corresponding to a molecule of this substrate in the cleft | – |
| NC(=O)C1=CN([C@@H]2O[C@H](COP(=O)(O)OP(=O)(O)OC[C@H]3O[C@@H](n4cnc5c(N)ncnc54)[C@H](O)[C@@H]3O)[C@@H](O)[C@H]2O)C=CC1 [NADH] | – | one NADH molecule bound to each copy of this fragment |
